Assay results as given in US20250236578A1, “NOVEL CANNABINOID DERIVATIVES” (CANNASOUL ANALYTICS LTD., priority 2021, published 2025).

Legend:
Human adrenal cells = assay: Steroidogenesis: cortisol secretion by Forskolin-stimulated human adrenal cells (ELISA); assay type: cell-based; conditions: 24 h, Forskolin 10 μM
Experimental: The effect of the compounds according to certain embodiments of the present invention as inhibitors of steroidogenesis was assessed. Human adrenal cells were thawed and cultured in a suitable medium at a final concentration of 5×10^5 cells per mL (performed in triplicates). Following 24 hours of incubation, cells were treated with 10 μM Forskolin. After 48 hours of incubation, cells were treated with controls (1 μM Prochloraz, and 0.2 μg/mL or 1 μg/mL CBD) and compounds according to embodiments of the present invention for 24 hours. Next, supernatants were collected, and the secretion levels of cortisol were measured by ELISA (R&D systems). Optical density was determined by ‘CLARIOStar-plus’® plate-reader. Cortisol concentration (ng/ml) was calculated using a standard curve.

PC3 cell line = assay: PI-positive cell count, prostate cancer cells (IncuCyte); assay type: cell-based, Human; conditions: for Number of cells (PI-positive): 24 h post-treatment
Experimental: (§1) The effect of the compounds according to certain embodiments of the present invention as anti-cancer agents was assessed. Human cancer cells of prostate (PC3 cell line), bladder (T24 cell line), or breast (MDA-MB-231 cell line) cancers were thawed and cultured in suitable media at a final concentration of 3×10^5 cells/mL and tested in triplicates. Following 24 hours of incubation, cells were treated with the tested compounds at 2 μg/ml and 4 μg/ml concentrations or controls (cells were grown in starvation medium and treated with Mitomycin C). Mitomycin C is a potent antineoplastic agent that creates DNA cross-linkage resulting in cell arrest and consequently cell death. It is used to treat various types of cancers such as bladder and breast cancers. In in-vitro models, it acts as a proliferation inhibitor as it induces G0-G1 cell growth arrest. The number of cells in each sample was quantified immediately upon treatment (time-point 0) and every 24 hours until full cell confluency was reached. 24 hours post-treatment, PI (1 μg/ml) was added to the treated cells for 1 hour. Using cell-by-cell analysis (IncuCyte™ cell imager), the PI-positive cells were counted and compared to the relative number of cells in the non-treated (NT) wells.

MDA-MB-231 cell line = assay: PI-positive cell count, breast cancer cells (IncuCyte); assay type: cell-based, Human; conditions: for Number of cells (PI-positive): 24 h post-treatment
Experimental: as §1

T24 cell line = assay: PI-positive cell count, bladder cancer cells (IncuCyte); assay type: cell-based, Human; conditions: for Number of cells (PI-positive): 24 h post-treatment
Experimental: as §1

[1] = Breast cancer MDA-MB-231, 2 μg/ml
[2] = Breast cancer MDA-MB-231, 4 μg/ml

Structure (SMILES) | Cortisol (Human adrenal cells; inhibitor 0.2 μg/mL) | Cortisol % of Forskolin (Human adrenal cells; inhibitor 0.2 μg/mL) | Cortisol (Human adrenal cells; inhibitor 1 μg/mL) | Cortisol % of Forskolin (Human adrenal cells; inhibitor 1 μg/mL) | % NT (PI-positive cells relative to non-treated) (PC3 cell line; Prostate cancer PC3, 2 μg/ml) | Number of cells (PI-positive) (PC3 cell line; Prostate cancer PC3, 2 μg/ml) | % NT (PI-positive cells relative to non-treated) (PC3 cell line; Prostate cancer PC3, 4 μg/ml) | Number of cells (PI-positive) (PC3 cell line; Prostate cancer PC3, 4 μg/ml) | % NT (PI-positive cells relative to non-treated) (MDA-MB-231 cell line; [1]) | Number of cells (PI-positive) (MDA-MB-231 cell line; [1]) | % NT (PI-positive cells relative to non-treated) (MDA-MB-231 cell line; [2]) | Number of cells (PI-positive) (MDA-MB-231 cell line; [2]) | % NT (PI-positive cells relative to non-treated) (T24 cell line; Bladder cancer T24, 2 μg/ml) | Number of cells (PI-positive) (T24 cell line; Bladder cancer T24, 2 μg/ml) | % NT (PI-positive cells relative to non-treated) (T24 cell line; Bladder cancer T24, 4 μg/ml) | Number of cells (PI-positive) (T24 cell line; Bladder cancer T24, 4 μg/ml)
CCCCCc1cc(O)c(C2C=C(C)CCC2C(C)(C)O)c(O)c1C(=O)NCCCN1CCOCC1 (stereo not drawn) [Formula 14] | 41 ng/mL | 39% | 45 ng/mL | 42% | – | – | – | – | – | – | – | – | – | – | – | –
CCCCCc1cc(O)c(C2CC(C)CCC2C(C)(C)O)c(O)c1 (stereo not drawn) [Formula 2] | 100 ng/mL | 94% | 77 ng/mL | 72% | 307% | 76.93 | 363% | 90.93 | – | – | – | – | – | – | – | –
CCCCCc1cc(O)c(C2C=C(C)CCC2C(C)(C)O)c(O)c1C(=O)OC (stereo not drawn) [Formula 12] | 43 ng/mL | 41% | 45 ng/mL | 42% | 215% | 53.93 | 390% | 97.80 | – | – | – | – | – | – | – | –
CCCN(CCOc1c(Cl)cc(Cl)cc1Cl)C(=O)n1ccnc1 [Prochloraz, reference compound] | – | – | 23 ng/mL | 22% | – | – | – | – | – | – | – | – | – | – | – | –
CCCCCCc1cc(O)c(C2C=C(C)CCC2C(C)(C)O)c(O)c1 (stereo not drawn) [Formula 1] | 37 ng/mL | 35% | 24 ng/mL | 22% | 216% | 54.13 | 260% | 65.27 | – | – | – | – | – | – | – | –
CCCCCCCc1cc(O)c(C2C=C(C)CCC2C(C)(C)O)c(O)c1 (stereo not drawn) [Formula 4] | 38 ng/mL | 36% | 35 ng/mL | 32% | 228% | 57.27 | 2810% | 704.33 | 120% | 61.07 | 1417% | 722.47 | 108% | 118.20 | 703% | 771.60
CCCCCCC(C)(C)c1cc(O)c(C2C=C(C)CCC2C(C)(C)O)c(O)c1 (stereo not drawn) [Formula 7] | 39 ng/mL | 37% | 47 ng/mL | 44% | 326% | 81.80 | 4139% | 1037.53 | 277% | 141.47 | 2197% | 1120.53 | 429% | 470.67 | 1156% | 1269.33
C=C(C)[C@@H]1CCC(C)=C[C@H]1c1c(O)cc(CCCCC)cc1O [CBD, cannabidiol, reference compound] | 101 ng/mL | 95% | 62 ng/mL | 58% | 90% | 22.53 | 320% | 80.13 | 175% | 89.40 | 1325% | 675.73 | 156% | 171.47 | 1794% | 1969.93
